# Results published in publication PMC9240354, “Pharmacokinetics, Pharmacodynamics and Antiviral Efficacy of the MEK Inhibitor Zapnometinib in Animal Models and in Humans” (Frontiers in Pharmacology, 2022).
# How the values were obtained:
# MEK = MEK inhibition in PBMCs of treated mice (pERK/ERK, Wes); assay type: in vivo, C57BL/6 mice
# Description: PBMCs were isolated from the same blood samples (30 µl mouse blood, 50 µl hamster blood, or 1 ml dog blood) used for pharmacokinetic analysis. After plasma separation as described in the section above (Blood sampling and preparation of plasma samples), the remaining red blood cells were lysed by adding 1 volume of red blood cell (RBC) lysis buffer (Thermo Fisher Scientific, Waltham, MA, United States) (300 µl for mice, 500 µl for hamster, and 10 ml for dogs). The samples were incubated for 15 min at RT and centrifuged at 500 x g for 5 min (RT). The supernatant was removed completely, and the pellet was washed twice with PBS. The PBMC cell pellets were store at −80°C until further analysis. PBMCs of 8 ml human blood were isolated using CPT^TM tubes. After a 20-min centrifugation at 1,650 x g at room temperature, the plasma was collected for PK analysis as described in the section above (Blood sampling and preparation of plasma samples). […]
# The pharmacodynamic assessment was performed using the Wes™ (Simple Western™) system which uses capillary electrophoresis to separate, identify and quantify proteins of interest. A chemiluminescence signal for each identified protein is detected and the area under the peak is calculated, which is then used for quantification. The 0.1x Sample Buffer, 400 mM dithiothreitol (DTT) solution, 5x Fluorescence Master Mix, and the Biotinylated Ladder (ProteinSimple®, Abingdon, Oxford, United Kingdom) were prepared according to manufacturer’s instructions. […] Then the 5x Fluorescence Master Mix in DTT (ProteinSimple®) was added, and the samples were denatured for 5 min at 95°C, loaded onto the assay plate and analyzed using specific antibodies. […] The anti-rabbit secondary antibody (Cat# DM-001) was also purchased from ProteinSimple® and was ready to use. Data were analyzed with Compass software for simple western (ProteinSimple®). Using the ratio of pERK to ERK of each sample compared to control (pre-dose), the level of ERK phosphorylation was calculated and then converted into the percentage level of MEK inhibition.
# in vivo = conditions: beagle, dog, po, 30 mg/kg
# tolerability in mice = assay type: in vivo; conditions: influenza virus infected mice, 25 mg/kg BID p.o.
# Description: Zapnometinib [2-(2-Chloro-4-Iodophenylamino)-N-3,4-Difluoro benzoic acid] (M = 409.56 g/mol) was synthesized at ChemCon GmbH (Freiburg, Germany). The doses used in this study were chosen based on previously unpublished preclinical data. […] The toxicity of zapnometinib was evaluated in single- and repeat-dose p. o. studies of up to 1-month duration in rats and dogs. The genetic toxicity of zapnometinib was investigated in compliance with ICH S2; a standard battery of genotoxicity studies was performed, comprising an Ames test, an in vitro chromosome aberration test in human lymphocytes and an in vivo micronucleus assay in rats. Thus, the doses used in this manuscript were safe (Koch-Heier et al., manuscript in preparation). For treatment of mice, 10.5 mg zapnometinib were dissolved in 5% (v/v) dimethyl sulfoxide (DMSO) (Carl Roth GmbH, Karlsruhe, Germany) and further diluted with 15% (v/v) Cremophor EL (Merck KGaA, Darmstadt, Germany), and 80% (v/v) phosphate-buffered saline (PBS) (Gibco, Carlsbad, CA, California, United States). Each mouse received a dose of 25 mg/kg zapnometinib in an application volume of 200 µL of the formulation by oral gavage. The first treatment was given on day 0 (1 h prior to influenza virus infection) and the second treatment 7 h post infection. […]
# [1] = mice
compound,measurement,setting,value
"O=C(O)c1ccc(F)c(F)c1Nc1ccc(I)cc1Cl [zapnometinib, 2-(2-Chloro-4-Iodophenylamino)-N-3,4-Difluoro benzoic acid]","MEK inhibition, first maximum",MEK; 2 h after first treatment,72 ± 10%
same,"MEK inhibition, second maximum",MEK; 22 h after first treatment (14 h after second),80 ± 5%
same,MEK inhibition at end of observation period,MEK; t = 24 h,66 ± 19%
same,half-life,in vivo,4 to 5 h
same,tolerability,tolerability in mice,well tolerated and not toxic
same,plasma concentration two hours after the second administration,"[1]; 25 mg/kg p.o. twice, t = 10 h",101 ± 16 µg/mL
same,plasma concentration prior to the second treatment,"[1]; 25 mg/kg p.o., t = 8 h",36 ± 8 µg/mL
